{
  "source": "patent US8618046B2",
  "about": "“Treatment of atherosclerosis with cholesterol ester transport protein mimotopes” (Affiris AG, priority 2007, dated 2013)",
  "key": {"[1]": {"tested_on": "monoclonal antibody “Frida”", "test": "In vitro inhibition (competition) ELISA with mAb Frida on coated original CETP epitope", "assay_type": "binding, mouse", "conditions": "for inhibition ELISA signal, high / inhibition ELISA signal, low / inhibition ELISA signal, 2 μg peptide / inhibition ELISA signal, 20 μg peptide: 2.5 ng mAb Frida; for inhibition ELISA signal, high / inhibition ELISA signal, low / inhibition ELISA signal, first value column / inhibition ELISA signal, second value column / inhibition ELISA signal, 2 μg peptide / inhibition ELISA signal, 20 μg peptide: detection αIgG1; for inhibition ELISA signal, high: high peptide amount; for inhibition ELISA signal, low: low peptide amount; for inhibition ELISA signal, first value column / inhibition ELISA signal, second value column: FIG. 18b, column without head; for inhibition in in vitro competition ELISA, mAb “Frida” (in words): monoclonal antibodies “Frida” and, where stated, “James”; for inhibition ELISA signal, 2 μg peptide / inhibition ELISA signal, 20 μg peptide: coat 1 μM peptide", "experimental": "Different amounts of peptides (2 and 20 μg, as indicated in the respective figures) derived from Phage Display were incubated with the monoclonal antibody that was used for the screening procedure. Peptides diminishing subsequent binding of the antibody to the original CETP epitope (C-terminal 16 amino acids of CETP protein) coated on ELISA plates were considered as inhibiting. (Results see i.a. FIGS. 19a to 19c)"}, "irrelevant peptide-BSA": {"tested_on": "irrelevant peptide-BSA", "test": "Titer to irrelevant peptide in sera of immunised animals (peptide ELISA)", "assay_type": "in vivo, mouse", "conditions": "Table 1, mice, sera 2 weeks after 3rd injection", "experimental": "Balb/c mice/30 μg Peptide, 2 injections in 2 week intervals. S3=2 weeks after 3rd injection. Alum as adjuvant. Titers against original epitope (p4073) induced by injection of mimotopes. Well coating: 50 μl of 1 μM p4073-BSA or 1 μg/ml activated KLH. Detection: αIgG:\nSubcutaneous injections in the flank were performed in week 1, week 3 and week 7 with 30 μg peptide-KLH per mouse. Intradermal injections in the ear were performed in week 1, week 3 and week 6 with 10 μg peptide-KLH per mouse. Sera were taken 2 weeks after the 3rd injection. Vaccine formulation with Alum (always 1 mg per mouse): up to 250 μl, injected into one flank. The Alum formulation with 1 ml per mouse (500 μl into each flank) was in 1×PBS as buffer.\nVaccine formulation with Gerbu Adjuvant 100 (Gerbu Cat. Nr. #3100; always 50 μl adjuvant per mouse): 200 μl, 100 μl injected into each flank comprising 1×HEPES as buffer.\nFemale Balb/c mice, five mice per group, were subcutaneously immunized with 30 μg peptide coupled to KLH. Control groups were administered KLH or C-[…] (SEQ ID NO. 147). As adjuvant alum was used. […] The in vitro ELISA assay to determine the antibody titer was performed with pooled sera after two vaccinations in a two week interval (S2; see FIGS. 7a to 7d). The wells of the ELISA plate were coated with KLH (positive control), mimotope-BSA conjugate, C-[…] (SEQ ID NO. 147) and a irrelevant peptide-BSA conjugate (negative control). The detection was performed with anti-mouse IgG."}, "[2]": {"conditions": "FIG. 18a, coat 1 μM 4073 peptide"}},
  "note": "Where no end group is shown, it is not given here.",
  "data": [
    {"substance": "C-FKPAHVFIDWLQSLS (N-terminal cysteine; CETP mimotope) [p4478]", "values": [
      {"measurement": "inhibition ELISA signal, high", "setting": "[1]; [2]", "result": 1.206},
      {"measurement": "inhibition ELISA signal, low", "setting": "[1]; [2]", "result": 2.231}
    ]},
    {"substance": "C-DFGFPAHVFIDWLQSLN (N-terminal cysteine; CETP mimotope) [p4818]", "values": [
      {"measurement": "inhibition ELISA signal, first value column", "setting": "[1]; coat 1 μM 4073 peptide", "result": 0.332},
      {"measurement": "inhibition ELISA signal, second value column", "setting": "[1]; coat 1 μM 4073 peptide", "result": 0.091}
    ]},
    {"substance": "C-PAHVFIDWLQ (N-terminal cysteine; CETP mimotope) [p4820]", "values": [
      {"measurement": "inhibition ELISA signal, first value column", "setting": "[1]; coat 1 μM 4073 peptide", "result": 2.310},
      {"measurement": "inhibition ELISA signal, second value column", "setting": "[1]; coat 1 μM 4073 peptide", "result": 2.374}
    ]},
    {"substance": "C-FGFPSHLIIEWLQSLS (N-terminal Cys; CETP mimotope) [p4433]", "values": [
      {"measurement": "inhibition ELISA signal, high", "setting": "[1]; FIG. 18c, coat 1 μM 4073", "result": 0.672},
      {"measurement": "inhibition ELISA signal, low", "setting": "[1]; FIG. 18c, coat 1 μM 4073", "result": 1.114}
    ]},
    {"substance": "C-DFGFPAHVLIDWLQSLN (N-terminal cysteine; CETP mimotope) [p4990]", "values": [
      {"measurement": "inhibition ELISA signal, first value column", "setting": "[1]; coat 1 μM 4073 peptide", "result": 0.263},
      {"measurement": "inhibition ELISA signal, second value column", "setting": "[1]; coat 1 μM 4073 peptide", "result": 0.073}
    ]},
    {"substance": "C-FGFPEHLLVDFLQSL (N-terminal Cys) [reference compound]", "values": [
      {"measurement": "inhibition in in vitro competition ELISA, mAb “Frida” (in words)", "setting": "[1]", "result": "inhibiting in vitro"}
    ]},
    {"substance": "C-AAFPAHAAADFLQALA (N-terminal Cys; CETP mimotope) [p4435]", "values": [
      {"measurement": "inhibition ELISA signal, high", "setting": "[1]; FIG. 18c, coat 1 μM 4073", "result": 1.969},
      {"measurement": "inhibition ELISA signal, low", "setting": "[1]; FIG. 18c, coat 1 μM 4073", "result": 1.281}
    ]},
    {"substance": "p4223-KLH: F2-9; C-SFLDTLT coupled to KLH (CSFLDTLT; also: coupled to KLH)", "values": [
      {"measurement": "titer, p irrelevant", "setting": "irrelevant peptide-BSA; Alum s.c. (30 μg peptide)", "result": "no titer"}
    ]},
    {"substance": "p4184-KLH: F3-18 C-DFLRTLT coupled to KLH (CDFLRTLT; also: coupled to KLH)", "values": [
      {"measurement": "titer, p irrelevant", "setting": "irrelevant peptide-BSA; KLH/Alum i.d. (10 μg peptide)", "result": "no titer"}
    ]},
    {"substance": "C-AAFPAHLLADAAQALA (N-terminal Cys; CETP mimotope) [p4434]", "values": [
      {"measurement": "inhibition ELISA signal, high", "setting": "[1]; FIG. 18c, coat 1 μM 4073", "result": 1.461},
      {"measurement": "inhibition ELISA signal, low", "setting": "[1]; FIG. 18c, coat 1 μM 4073", "result": 1.74}
    ]},
    {"substance": "C-FGFPAHVFIDWLQSLS [p4361]", "values": [
      {"measurement": "inhibition ELISA signal, 2 μg peptide", "setting": "[1]; FIG. 10a", "result": 0.82},
      {"measurement": "inhibition ELISA signal, 20 μg peptide", "setting": "[1]; FIG. 10a", "result": 0.16}
    ]},
    {"substance": "C-GFKPAHVFIDWLQSLS (N-terminal cysteine; CETP mimotope) [p4479]", "values": [
      {"measurement": "inhibition ELISA signal, high", "setting": "[1]; [2]", "result": 1.591},
      {"measurement": "inhibition ELISA signal, low", "setting": "[1]; [2]", "result": 2.165}
    ]},
    {"substance": "C-FGFPEHLLVDFLQS [reference compound]", "values": [
      {"measurement": "inhibition in in vitro competition ELISA, mAb “Frida” (in words)", "setting": "[1]", "result": "not inhibiting in vitro"}
    ]},
    {"substance": "C-DFGFPSHLIIDWLQSLS (N-terminal cysteine; CETP mimotope) [p4642]", "values": [
      {"measurement": "inhibition ELISA signal, first value column", "setting": "[1]; coat 1 μM 4073 peptide", "result": 0.171},
      {"measurement": "inhibition ELISA signal, second value column", "setting": "[1]; coat 1 μM 4073 peptide", "result": 0.082}
    ]},
    {"substance": "C-FGFPAHFSIDWLQSLS (N-terminal cysteine; CETP mimotope) [p4475]", "values": [
      {"measurement": "inhibition ELISA signal, high", "setting": "[1]; [2]", "result": 1.429},
      {"measurement": "inhibition ELISA signal, low", "setting": "[1]; [2]", "result": 2.211}
    ]},
    {"substance": "p4228-KLH: P12-21; C-RMFPESFLDTLW coupled to KLH (CRMFPESFLDTLW; also: coupled to KLH)", "values": [
      {"measurement": "titer, p irrelevant", "setting": "irrelevant peptide-BSA; KLH/Alum i.d. (10 μg peptide)", "result": "no titer"},
      {"measurement": "titer, p irrelevant", "setting": "irrelevant peptide-BSA; KLH/Gerbu s.c. (30 μg peptide)", "result": "no titer"}
    ]},
    {"substance": "C-FGFPSHLIIDWLQSLS (N-terminal Cys; CETP mimotope) [p4325]", "values": [
      {"measurement": "inhibition ELISA signal, 2 μg peptide", "setting": "[1]; FIG. 10b", "result": 0.42},
      {"measurement": "inhibition ELISA signal, 20 μg peptide", "setting": "[1]; FIG. 10b", "result": 0.1}
    ]},
    {"substance": "C-DFGFPAHVFIDWLQSLS (N-terminal cysteine; CETP mimotope) [p4480]", "values": [
      {"measurement": "inhibition ELISA signal, high", "setting": "[1]; [2]", "result": 0.103},
      {"measurement": "inhibition ELISA signal, low", "setting": "[1]; [2]", "result": 0.521}
    ]},
    {"substance": "C-FGFPAHVFIDWLQSLN (N-terminal cysteine; CETP mimotope) [p4474]", "values": [
      {"measurement": "inhibition ELISA signal, high", "setting": "[1]; [2]", "result": 0.179},
      {"measurement": "inhibition ELISA signal, low", "setting": "[1]; [2]", "result": 1.452}
    ]},
    {"substance": "C-FGFPAHVYIDWLQSLS [p4362]", "values": [
      {"measurement": "inhibition ELISA signal, 2 μg peptide", "setting": "[1]; FIG. 10a", "result": 0.75},
      {"measurement": "inhibition ELISA signal, 20 μg peptide", "setting": "[1]; FIG. 10a", "result": 0.15}
    ]},
    {"substance": "p4187-KLH: F3-34 C-TFLSSLA coupled to KLH (CTFLSSLA; also: coupled to KLH)", "values": [
      {"measurement": "titer, p irrelevant", "setting": "irrelevant peptide-BSA; Alum s.c. (30 μg peptide)", "result": "no titer"},
      {"measurement": "titer, p irrelevant", "setting": "irrelevant peptide-BSA; KLH/Gerbu s.c. (30 μg peptide)", "result": "no titer"}
    ]},
    {"substance": "C-FGFPAHVSFDWLQSLS (N-terminal cysteine; CETP mimotope) [p4476]", "values": [
      {"measurement": "inhibition ELISA signal, high", "setting": "[1]; [2]", "result": 1.417},
      {"measurement": "inhibition ELISA signal, low", "setting": "[1]; [2]", "result": 2.000}
    ]}
  ]
}
